Counter-ions that a name gives are not always drawn.
molecular target: T1, histamine H2-receptors (Rattus norvegicus, UniProt P25102); assay: blocking activity of histamine H2-receptors: antagonism of histamine-induced gastric acid secretion (perfused stomach, pH recording) in anesthetized rats; type: in vivo; conditions: iv, rapid i.v. injection (right femoral vein), histamine hydrochloride infusion 0.0552 mg/min/kg, ethyl carbamate anesthesia, male Sprague-Dawley rats
T1 construct: histamine H2 -receptors was tested in Sprague-Dawley male rats; from tissue; host or cells: stomach of the living anesthetized Sprague-Dawley rat (in vivo perfused stomach)
T1 sequence (P25102 whole entry, the tested form may be a part): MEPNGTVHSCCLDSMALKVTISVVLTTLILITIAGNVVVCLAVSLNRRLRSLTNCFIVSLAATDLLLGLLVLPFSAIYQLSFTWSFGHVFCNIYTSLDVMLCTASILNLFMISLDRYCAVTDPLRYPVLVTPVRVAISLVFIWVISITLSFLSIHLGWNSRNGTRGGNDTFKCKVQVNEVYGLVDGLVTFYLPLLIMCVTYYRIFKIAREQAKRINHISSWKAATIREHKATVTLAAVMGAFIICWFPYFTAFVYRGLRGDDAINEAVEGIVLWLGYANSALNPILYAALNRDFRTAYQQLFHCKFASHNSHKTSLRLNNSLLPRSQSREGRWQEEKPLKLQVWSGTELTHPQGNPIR
Description: The blocking qctivity of histamine H2 -receptors was tested in Sprague-Dawley male rats weighing 345±38 g. Animals which were subjected to a 24-hour hydric diet were tracheotomized under ethyl carbamate anesthesia (1 ml/100 g, 10% w/V i.p.). After cannulating the esophagus and stomach from duodenum, the gastric contents were drained. Then the esophageal cannual was connected to a peristaltic pump, under prior passage over a thermostatic batch at 37° C., and 1/800N sodium hydroxide solution in water flowed through. The cannula from the stomach was connected by a tube leading to a Ph-meter electrode, and the readings were graphically recorded. pH increase occurring by perfusion of the sodium hydroxide solution at 1.6 ml/min. rate is antagonized by continuous infusion of histamine hydrochloride through a catheter implanted in the right femoral vein (0.0552 mg/min/kg, 2 ml/hour). After calibrating the pH, test drugs are quickly injected into the right femoral vein. Under these conditions, the activities, expressed at ED50, of some compounds according to the present invention, are determined and set forth as follows, with cimetidine being employed for purposes of comparison: […]

Q: For `Cc1ccc(S(=O)(=O)N=CNCCSCc2csc(N=C(N)N)n2)cc1` [Ex. 1, hydrogen maleate, N-p-toluensulphonyl-N'-[2-[[[2-[(aminoiminomethyl)amino]-4-thiazolyl]methyl]thio]ethyl]formamidine hydrogen maleate], which ED50 is on record?
A: 0.7 µmol/kg

Q: For `NC(N)=Nc1nc(CSCCNC=NS(=O)(=O)c2ccccc2)cs1` [Ex. 2, hydrogen maleate, N-benzenesulphonyl-N'-[2-[[[2-[(aminoiminomethyl)amino]-4-thiazolyl]methyl]thio]ethyl]formamidine hydrogen maleate], which ED50 is on record?
A: 1.77 µmol/kg

Q: With `CS(=O)(=O)N=CNCCSCc1csc(N=C(N)N)n1` [Ex. 3, hydrogen maleate, N-methansulphonyl-N'-[2-[[[2-[(aminoiminomethyl)amino]-4-thiazolyl]methyl]thio]ethyl]formamidine hydrogen maleate] as the compound, how does the ED50 read?
A: 1.12 µmol/kg

Q: `NC(N)=Nc1nc(CSCCNC=NS(=O)(=O)c2ccc([N+](=O)[O-])cc2)cs1` [Ex. 4, hydrogen maleate, N-p-nitrobenzenesulphonyl-N'-[2-[[[2-[(aminoiminomethyl)amino]-4-thiazolyl]methyl]thio]ethyl]formamidine hydrogen maleate] was tested. Which ED50 did it give?
A: 0.61 µmol/kg

Q: For `NC(N)=Nc1nc(CSCCNC=NS(=O)(=O)c2ccc(Cl)cc2)cs1` [Ex. 5, hydrogen maleate, N-p-chlorobenzenesulphonyl--N'-[2-[[[2-[(aminoiminomethyl)amino]-4-thiazolyl]methyl]thio]ethyl]formamidine hydrogen maleate], which ED50 is on record?
A: 0.75 µmol/kg

— patent US4728655A, “Sulfonamidines, process for the production thereof and pharmaceutical compositions containing the same” (Ferrer Internacional S.A., priority 1984, dated 1988)
